{
  "source": "patent US20040259732A1",
  "about": "“Treatment of plants and plant propagation materials with an antioxidant to improve plant health and/or yield” (Monsanto Technology, L.L.C., priority 2003, published 2004)",
  "key": {"[1]": {"system": "Hybrid \"A\" corn seeds", "assay": "Cold condition germination test (Test 3), Hybrid A corn seeds", "assay_type": "in vivo", "details": "10° C.", "experimental": "(§1) This test was designed to measure the ability of seeds to germinate under adverse condition associated with high moisture and low temperature. Test 3-This test was conducted as described above in Test 1, except that the Petri dishes were incubated at a constant temperature of 10° C. Germination rate was determined as described above in Test 1. The test length continued for 30 days as the seeds are very slow to germinate under these conditions."}, "[2]": {"system": "Hybrid \"B\" corn seeds", "assay": "Cold condition germination test (Test 3), Hybrid B corn seeds", "assay_type": "in vivo", "details": "10° C.", "experimental": "as §1"}, "[3]": {"system": "Corn plantlets (Hybrid LH176rr1.4(LH224×LH226))", "assay": "Fresh weight accumulation after cold stress, corn plantlets", "assay_type": "in vivo", "details": "seed treated with 50-100 g/100 kg; 6 days 18° C./12° C."}, "[4]": {"system": "Hybrid \"A\" (cold tolerant) corn", "details": "10° C.; 25 g/100 kg seed", "experimental": "(§2) This test was designed to measure the emergence of plantlets from sprouted seeds under conditions that more closely resemble those found in field conditions.\n(§3) For each sample batch of seed to be tested, 10 seeds were placed on ½″ of soil medium in a test tray and covered with an additional 2″ of soil medium. Three replications were prepared for each sample batch. The soil is moistened regularly and placed in the desired temperature regime. For a cold emergence test, trays are incubated at 10° C. with 16 hours of light. The tray is monitored daily over a 30-day period and a seed is counted as emerged when the spike breaks through the surface of the soil. Percent emergence is calculated as the number of emerged plantlets divided by the total number of seeds that were planted, times 100.\n(§4) Corn hybrids “A” and “B”, as described above were treated with choline chloride at levels of 0, 10, 25 and 50 g/100 kg of seed. Each batch of seed was tested under 10° C. incubation conditions for emergence from a soil medium as described above."}, "[5]": {"system": "Hybrid \"B\" (cold sensitive) corn", "details": "10° C.", "experimental": "as §2, §3, §4"}, "[6]": {"system": "corn seed", "assay": "Field trials, emergence in cold conditions by seed treatment rate", "assay_type": "in vivo", "details": "rates from 25 g/100 Kg to 250 g/100 Kg", "experimental": "(§5) Samples of seed having each type of treatment shown in Table 3 were planted in a controlled field trial in the upper Midwestern United States. Conservation tillage practices were adhered to and planting was accomplished during the first 10% of the crop that got planted in that area. During the trial, the plant density (number of plants per acre) and the corn yield (bu/acre) were measured."}, "[7]": {"system": "corn seeds", "details": "optimum (warm) conditions; any of the treatment levels tested (10-250 g/100 kg seed)", "procedure": "Test 1—Ten seeds for each sample to be tested are placed in each of ten Petri dishes with 5 ml of distilled water and incubated at 30° C. day and 20° C. night with a 16 hour day length. Each day the Petri dishes were checked and scored for germination. Percent germination was determined as the average number of seeds which had germinated within the test period minus any abnormal seeds, divided by the total number of original seeds, times 100. A seed was considered germinated when the radical reached a length of 1 cm.\nTest 2—Test 2 is much closer to an industry standard for optimum condition testing. Test seeds are placed on a moist paper towel and then covered with a second moist paper towel. The towel is then rolled into a cylinder and placed upright in a beaker containing water. The beaker is placed in an incubation chamber at 25° C. for 7 days in continuous darkness. After 7 days the number of seeds germinated are counted and converted to a percentage of seeds in the test. This test is used to determine the maximum germination potential of the seed.\nAfter treatment, each seed sample was tested for germination in as described in Test 1, Test 2 and Test 3, as described above."}, "[8]": {"system": "carrot seeds", "details": "seed soak: gibberellic acid 1 and 100 microgram/l, Ambiol 0.1 mg/l, glycinebetaine 100 mg/l; cited from earlier work"}, "[9]": {"system": "Corn seeds (Hybrid LH176rr1.4(LH224×LH226))", "assay_type": "in vivo", "details": "field trial", "experimental": "Corn seeds (Hybrid LH176rr1.4(LH224×LH226, available from Holden's Foundation Seeds, Inc., Williamsburg, Iowa) were treated with an antioxidant, alone or in combination with a pesticide (silthiofam, available from Monsanto Co., St. Louis, Mo., under the trade name […]®, 11.83% w/w silthiofam) according to the rates shown in Table 3.\nas §5"}, "[10]": {"system": "carrot seed", "details": "carrot seed treatment; cited from earlier work"}, "[11]": {"system": "seeds of black spruce and jack pine", "details": "seed soak at 0, 0.1, and 10 mg/l; cited from earlier work"}, "[12]": {"system": "Soybean plantlets (Hybrid AG3303)", "assay": "Fresh weight accumulation after cold shock, soybean plantlets", "assay_type": "in vivo", "details": "seed treated with 10-20 g/100 kg; one week 22° C./13° C.; measured 10 days after return to greenhouse", "experimental": "Soybean plantlets (Hybrid AG3303, available from Asgrow Seed Co., St. Louis, Mo.) that were grown in a greenhouse maintained at day/night temperatures of 30° C. day and 25° C. night and with a 12 hour light period. The seed had been treated with different levels of glycinebetaine and were grown in optimum greenhouse conditions until they reached the first trifoliate stage of development. The plants were then moved from the greenhouse and subjected to 22° C./13° C. day/night temperatures for one week in a Conviron growth chamber. After one week the plants were returned to the greenhouse for “recovery” in optimal conditions. The fresh weight accumulation of the plantlets was then measured after 10 days following their return to the greenhouse."}, "[13]": {"system": "cotton seeds", "details": "treated cotton seeds; cited from earlier work"}},
  "data": [
    {"smiles": "C[N+](C)(C)CCO.[Cl-]", "note": "[choline chloride]", "values": [
      {"measurement": "50% germination earlier than untreated control", "setting": "[1]; 100 g/100 kg (best rate)", "result": "two days earlier"},
      {"measurement": "effect on germination rate", "setting": "[1]; lower treatment rates, FIG. 1A / FIG. 2A", "result": "substantially the same effect"},
      {"measurement": "50% germination earlier than untreated control", "setting": "[2]; 50 g/100 kg", "result": "three days earlier"},
      {"measurement": "50% germination earlier than untreated control", "setting": "[2]; 100 g/100 kg", "result": "three days earlier"},
      {"measurement": "fresh weight accumulation after cold shock vs untreated seed", "setting": "[3]", "result": "tendency for greater fresh weight accumulation"},
      {"measurement": "50% emergence earlier than untreated control", "setting": "[4]", "result": "three days before the untreated control"},
      {"measurement": "day on which 50% emergence was reached", "setting": "[4]", "result": 22, "unit": "days"},
      {"measurement": "days after seeding at which 50% germination was reached", "setting": "[5]; 10 g/100 kg seed", "result": 29, "unit": "days"},
      {"measurement": "increase in germination time over untreated control", "setting": "[5]; 10 g/100 kg seed, study end 31 days", "result": "minimum of two days"},
      {"measurement": "first evidence of emergence", "setting": "[5]; 10 g/100 kg treated seed", "result": 21, "unit": "days"},
      {"measurement": "emergence as a function of rate", "setting": "[6]", "result": "emergence is found to increase with the increase of the rate"},
      {"measurement": "effect on germination under normal growing conditions", "setting": "[7]", "result": "no negative effects on germination"}
    ]},
    {"smiles": "C=C1C[C@]23C[C@@]1(O)CC[C@H]2[C@@]12C=C[C@H](O)[C@@](C)(C(=O)O1)[C@H]2[C@@H]3C(=O)O", "note": "[gibberellic acid]", "values": [
      {"measurement": "emergence of seedlings", "setting": "[8]", "result": "accelerated emergence of seedlings"}
    ]},
    {"smiles": "C=CCNC(=O)c1c([Si](C)(C)C)sc(C)c1C", "note": "[silthiofam, 4,5-dimethyl-N-(2-propenyl)-2-(trimethylsilyl)-3-thiophenecarboxamide]", "values": [
      {"measurement": "corn yield improvement over untreated control", "setting": "[9]; rates of Table 3 (silthiofam 25, choline chloride 250, glycinebetaine 50, BHA/BHT 10 g/100 kg seed), FIGS. 7B and 7C", "result": "~20", "unit": "%"},
      {"measurement": "corn plant density (number of plants per acre)", "setting": "[9]; rates of Table 3, FIG. 7A", "result": "significant improvement in corn plant density"}
    ]},
    {"smiles": "Cc1nc2ccc(O)c(CN(C)C)c2[nH]1", "note": "[Ambiol, 2-methyl-4-[dimethylaminomethyl]-5-hydroxybenzimidazole]", "values": [
      {"measurement": "germination in carrots", "setting": "[10]", "result": "hastened germination"},
      {"measurement": "membrane leakage", "setting": "[11]", "result": "reduced membrane leakage"},
      {"measurement": "emergence of seedlings", "setting": "[8]", "result": "accelerated emergence of seedlings"}
    ]},
    {"smiles": "C[N+](C)(C)CC(=O)[O-]", "note": "[glycinebetaine]", "values": [
      {"measurement": "50% germination earlier than untreated control", "setting": "[2]; 50 g/100 kg", "result": "three-day earlier germination"},
      {"measurement": "50% germination earlier than untreated control", "setting": "[2]; 100 g/100 kg", "result": "three-day earlier germination"},
      {"measurement": "fresh weight accumulation following the cold shock", "setting": "[12]", "result": "greater fresh weight accumulation"},
      {"measurement": "drought tolerance", "setting": "[13]", "result": "improvement in drought tolerance"},
      {"measurement": "germination in carrots", "setting": "[10]", "result": "hastened germination"},
      {"measurement": "emergence of seedlings", "setting": "[8]", "result": "accelerated emergence of seedlings"}
    ]}
  ]
}
